Test results published in paper PMC6385020 (Molecules, 2019).

Columns and labels:
[1] = system: G4 structures (22AG, c-myc, 21CTA, CEB25-WT); assay: TO-PRO-3-G4-FID assay, G4 structures; type: binding
Method: (§1) For the G4-FID assay, the oligonucleotides were dissolved in K^+100 buffer (10 mM lithium cacodylate buffer pH 7.3, 100 mM KCl, 1% DMSO). Oligonucleotide concentrations were determined on the basis of their absorbance at 260 nm. For the fluorimetric titration, the oligonucleotides were dissolved in K^+100 buffer without DMSO. For the FRET-melting assay, the oligonucleotides were dissolved in K^+1 buffer (10 mM lithium cacodylate buffer pH 7.3, 1 mM KCl, 99 mM LiCl) except for F-21-T. F-21-T was dissolved in K^+10 buffer (10 mM lithium cacodylate buffer pH 7.3, 10 mM KCl, 90 mM LiCl).
Prior to use, all oligonucleotides were pretreated by heating at 95 °C for 5 min, then rapidly cooled to 4 °C to favor the intramolecular folding by kinetic trapping. Duplex-DNA ds26 was prepared by heating the self-complementary strand at 90 °C for 5 min in K^+1 buffer followed by a slow cooling over 6 h.
Each G4-FID assay was performed in a 96-well Non-Binding Surface black with black bottom polystyrene microplates (Corning). Every ligand was tested on a line of the microplate, in duplicate. The microplate was filled with (a) K^+100 solution (qs for 200 μL), (b) 10 μL of a solution of pre-folded oligonucleotides (5 μM) and fluorescent probe (TO/TO-PRO-3 (10 μM—2 eq) or PhenDV (7,5 µM—1.5 eq)), and (c) an extemporaneously prepared 5 μM ligand solution in K^+100 buffer (0 to 100 μL) along the line of the microplate, i.e., from column A to column H: 0, 0.125, 0.25, 0.375, 0.5, 0.625, 0.75, 1.0, 1.25, 1.5, 2.0, and 2.5 μM. After 5 min of orbital shaking at 500 rpm, fluorescence is measured using the following experimental parameters: positioning delay of 0.5 s, 20 flashes per well, emission/excitation filters for TO at 485/520, TO-PRO-3 at 620/670, and PhenDV at 355/520 gain adjusted at 80% of the fluorescence from the most fluorescent well (i.e., a well from column A for TO and a well from column H).
The percentage of TO displacement is calculated from the fluorescence intensity (F), using (1) % TO displacement=1−F/F0 where F0 is the fluorescence from the fluorescent probe bound to DNA without added ligand.
The PhenDV displacement is calculated from the fluorescence intensity F; F(ligand+probe), which refers to the fluorescence of the probe in presence of the ligand (without G4); and F0, which is the fluorescence without added ligand. The term F(ligand+probe) is necessary as the ligand can quench the fluorescence of the probe. The percentage of displacement is then plotted as a function of the concentration of the added ligand. The DNA affinity was evaluated by the concentration of ligand required to decrease the fluorescence of the probe by 50%, was noted DC50, and was determined after non-linear fitting of the displacement curve.

[2] = system: 22AG (DNA, G4) AGGGTTAGGGTTAGGGTTAGGG; assay: G4-FID, TO-PRO-3 displacement; settings: 100 mM KCl; 10 mM lithium cacodylate pH 7.3, 1% DMSO; TO-PRO-3 displaced; 1 µM compound, 0.25 µM DNA
[3] = system: 21CTA (DNA, G4) AGGGCTAGGGCTAGGGCTAGGG; assay: G4-FID, TO-PRO-3 displacement; settings: 100 mM KCl; 10 mM lithium cacodylate pH 7.3, 1% DMSO; TO-PRO-3 displaced; 1 µM compound, 0.25 µM DNA
[4] = system: duplex ds26 DNA; assay: TO-PRO-3 G4-FID assay; type: binding; settings: ds26, K+100 buffer
Method: as §1, with “LiCl). […]” for “LiCl).”
Each G4-FID assay was performed in a 96-well Non-Binding Surface black with black bottom polystyrene microplates (Corning). […] After 5 min of orbital shaking at 500 rpm, fluorescence is measured using the following experimental parameters: positioning delay of 0.5 s, 20 flashes per well, emission/excitation filters for TO at 485/520, TO-PRO-3 at 620/670, and PhenDV at 355/520 gain adjusted at 80% of the fluorescence from the most fluorescent well (i.e., a well from column A for TO and a well from column H).
The percentage of TO displacement is calculated from the fluorescence intensity (F), using (1) % TO displacement=1−F/F0 where F0 is the fluorescence from the fluorescent probe bound to DNA without added ligand. […]

[5] = system: 22AG human telomeric G4; assay: Platination of 22AG followed by denaturing gel electrophoresis; type: biochemical; settings: 0.2 µM 22AG, 1 µM complex, 25 to 95 °C gradient, K+10 buffer
From the text: Since all these complexes (except for Pt(PA)-tpy) are susceptible to induce platination reactions, they can be exacerbated by a high temperature and by an increased number of nucleophilic sites which are exposed during unfolding (increased N7 G free sites); we wonder if such a reaction could occur during FRET-melting experiments and to what extent. Therefore, we followed the extent of platination reactions of c-myc and 22AG (same sequences as those used for FRET-melting but without fluorophore labeling) as a function of the melting temperature using ^32P-labelled oligonucleotides and denaturing gel electrophoresis (Figure 2).
The oligonucleotides were 5’-end-labelled using a polynucleotide kinase and (γ^32P)-ATP (Perkin Helmer). The reaction products were purified by electrophoresis on 20% denaturing gel. Sample platinations were prepared by folding a mixture of 5’-end-radiolabeled DNA and 10 µM or 100 µM of non-radiolabeled material in 100 mM KClO4 or 100 mM KCl solution except for the platination reaction in the denaturing temperature conditions. The folding was achieved by heating the samples at 90 °C for 5 min, followed by slow cooling to room temperature over the course of 2 h to induce the formation of the quadruplex structure. It was then incubated with platinum complexes, and platinated products were separated by electrophoresis on 15% denaturing gel. […]

[6] = system: CEB25-WT (DNA, G4) AAGGGTGGGTGTAAGTGTGGGTGGGT; assay: G4-FID, thiazole orange displacement; settings: 100 mM KCl; 10 mM lithium cacodylate pH 7.3, 1% DMSO; thiazole orange displaced; 1 µM compound, 0.25 µM DNA
[7] = system: ds26 (DNA, duplex) CAATCGGATCGAATTCGATCCGATTG; assay: G4-FID, thiazole orange displacement; settings: 100 mM KCl; 10 mM lithium cacodylate pH 7.3, 1% DMSO; thiazole orange displaced; 1 µM compound, 0.25 µM DNA
[8] = system: c-myc* (DNA, G4) TGAGGGTGGGTAGGGTGGGTAA; assay: denaturing gel electrophoresis, 3'-exonuclease digestion; settings: 100 mM KCl or KClO4; covalent; platination mainly A21/A22, also A12/G13; 18 h, 32 °C, 10 µM DNA

Row | Compound | TO-PRO-3 displacement [1] | % TO-PRO-3 displacement [2] | % TO-PRO-3 displacement [3] | % of TOPRO3 displacement at 1 µM of ligand [4] | platination of 22AG during melting temperature experiments [5] | % TO displacement [6] | % TO displacement [7] | binding [8]
1 | CN(C)c1ccc(/C=C/c2cc(-c3ccccn3)nc(-c3ccccn3)n2)cc1.[Cl-].[Cl][Pt+] [Pt-vpym, Chloro-(E)-4-(2-(2,6-di(pyridin-2-yl)pyrimidin-4-yl)vinyl)-N,N-dimethylaniline-platinum(II) Chloride] | 30% | ~ 30% | ~ 30% | – | – | – | – | –
2 | Cc1ccc(-c2cc(-c3ccccn3)nc(-c3ccccn3)c2)cc1.[Cl-].[Cl][Pt+] [Pt-ttpy] | – | – | – | 13% | clearly platinate | > 80% | < 20% | yes
3 | [Cl-].[Cl][Pt+].c1ccc(-c2cccc(-c3ccccn3)n2)nc1 [Pt-tpy] | weak displacement | – | – | – | clearly platinate | – | – | –
4 | CN(C)CCCNCc1ccc(-c2cc(-c3ccccn3)nc(-c3ccccn3)c2)cc1.[Cl-].[Cl][Pt+] [Pt-ctpy] | – | – | – | 24% | – | > 80% | < 20% | –
5 | [Cl-].[Cl][Pt+].c1ccc(-c2cc(-c3ccc(OCCN4CCCC4)cc3)nc(-c3ccccn3)n2)nc1 [Pt-cpym, Chloro-(2,4-di(pyridin-2-yl)-6-(4-(2-(pyrrolidin-1-yl)ethoxy)phenyl)pyrimidine)-platinum(II) Chloride] | weak displacement | – | – | – | – | < 60% | – | –
